Measured values reported in the NIST ThermoML archive (doi:10.1021/acs.jced.7b00483).

Experiment: molar heat capacity at constant pressure
Settings: 100 kPa, Liquid, Flow calorimetry

O [water]
Settings	molar heat capacity at constant pressure [J/K/mol]
298.15 K	75.66
303.15 K	75.57
308.15 K	75.54
313.15 K	75.5
318.15 K	75.47
323.15 K	75.45
328.15 K	75.45
333.15 K	75.47
338.15 K	75.5
343.15 K	75.57
348.15 K	75.66
353.15 K	75.77
358.15 K	75.9
363.15 K	76.02
